Here are results for one substance from patent publication US8735141B2, “Vermiculture compositions” (M-I L.L.C., priority 2001, dated 2014).

One series has as its system alfalfa. Nature of the series: Alfalfa phytotoxicity (seed emergence, root elongation, shoot mass). In kind it is in vivo. Particulars: base fluids; normalized to Control test values of 100. As for the experimental part:
(§1) Environmental tests were carried out on the base fluids, several muds, and a few samples of mud-coated cuttings before and after treatment in a bioreactor. The tests consisted of the following: (a) biodegradability (respiration rate and hydrocarbon loss in a reference moist soil); (b) phytoxicity (alfalfa seed emergence and root elongation); (c) earthworm survival; (d) springtail survival; and (e) Microtox (IC-50 on bioluminescent bacterium Photobacterium phosporeum).
Alfalfa seed emergence and root elongation.

For series [1], the system named is Earthworms (Esenia fetida). In words: Earthworm survival. In kind it is in vivo. The settings on record: base fluids. As for the experimental part: as §1
Earthworms (Esenia fetida) toxicity

The nature of series [2]: Biodegradability (respiration rate and hydrocarbon loss in a reference moist soil). The settings on record: base fluids, 1 = most biodegradable. As for the experimental part:
as §1
Biodegradability and toxicity of Formulations A and N are contrasted with those of typical diesel/CaCl2/barite fluid in Table 4. The leading rate on the test soil in Table 4 was 6% w/w. […] In comparing formulation A with a similar formulation weighted with barite (instead of hematite), biodegradability and toxicity appear to be similar for the two fluids. However, a soil-enhancing iron source is considered desirable for its long-term potential benefits.
Biodegradability (Respiration rate and hydrocarbon loss in moist soil.)

Series [3] can be described thus: Toxicity of various base fluids, overall rank. Particulars: 1 = least toxic. As for the experimental part: as §1
One of skill in the art will appreciate that the results of Table 1 indicate that diesel and the branched paraffins are more resistant to rapid biodegradation than the other four fluids.

Consider “Isomerized tetradecene [Isomerized tetradecene C14 (IO)]”, for which, in the series on alfalfa, the “Alfalfa Phytotoxicity % Root Elongation” value came out at 144% and the “Alfalfa Phytotoxicity % Seed Emergence” value is reported as 101%. Further, the “Animal Toxicity % Earthworm Survival” value in series [1] was found to be 100%. For the same substance, the “Biodegradability Rank” value in series [2] is reported as 4. Also, in series [3], the “Toxicity Rank” value is 4.
